Measurements taken from US11324798B2, “Materials and methods for treatment of inflammation” (CYTOGEL PHARMA, LLC, priority 2010, dated 2022).
Several values for one entry are separate records, joined by “and”; a condition that tells them apart may be missing. Identical values can stand only once. Entries after “also recorded” stand apart in the source; their conditions may differ.

Experiments:
[1] = tested on: mustard oil-induced acute neurogenic inflammation in the paw skin of the rat; assay: 1% mustard oil-induced plasma protein extravasation in the acutely denervated rat hindpaw skin, Evans blue leakage; assay type: in vivo; conditions: for Evans blue leakage in the rat hindpaw skin / Evans blue leakage in the rat hindpaw skin, Mean: 1% mustard oil; for Evans blue leakage in the rat hindpaw skin: individual paws (rats 1-8, left/right)
Procedure: (§1) For the in vivo rat and mouse experiments, 5.5 ml of the 1 mg/ml stock solution of CYT-1010 was prepared freshly every experimental day with 20% HPCD dissolved in sterile distilled water. […] The vehicle was 20% HPCD dissolved in sterile distilled water. Further dilutions of the compound for the smaller administered doses were made with this vehicle, the 500 μg/ml and 100 μg/ml concentrations looked opalescent and the lower concentrations were clear. In rats 0.1 ml/100 g, in mice 0.1 ml/10 g volumes were administered i.v. 10 min before the induction of the inflammation.
Both hindlegs of the rats were acutely denervated (the sciatic and the saphenous nerves were cut 30 min before the induction of inflammation) under deep sodium thiopental (50 mg/kg i.p.) anaesthesia to avoid central reflexes. Acute neurogenic inflammation in the dorsal skin of the hindpaws was evoked by topical application of 1% mustard oil (allylisothiocianante) dissolved in paraffin oil. Mustard oil in concentrations below 5% selectively stimulates TRPA1 ion channels on capsaicin-sensitive peptidergic nerves and induces the release of pro-inflammatory sensory neuropeptides such as CGRP and substance P, which cause vasodilation and plasma protein extravasation in the innervated area.
CYT-1010 (1, 10, 100 and 1000 μg/kg; 0.1 ml/100 g from the 1, 10, 100 and 1000 μg/ml solutions) was administered i.v. 5 min before the induction of the inflammation by mustard oil smearing. Rats in the control group were treated with the same volume of the vehicle, 20% hydroxypropyl-β-cyclodextrin (dissolved in sterile distilled water). The experimental protocol is also illustrated in FIG. 2.
40 male Wistar rats (220-260 g) altogether were divided into 5 experimental groups: Group 1: 8 vehicle-treated controls (n=8); Group 2: 1 μg/kg CYT-1010 (n=8); Group 3: 10 μg/kg CYT-1010 (n=8); Group 4: 100 μg/kg CYT-1010 (n=8); and Group 5: 1000 μg/kg CYT-1010 (n=8).
This study was undertaken in blocks with 10 rats per occasion. The whole set of data was obtained during 4 days, and there were rats of each group every day.
Extravasation of plasma albumin was measured by the Evans blue leakage method. Evans blue (50 mg/kg) was injected i.v. and neurogenic inflammation was induced 10 min later. Rats were killed by exsanguination 20 min after mustard oil application. The skin of the hindpaws was removed and the extravasated dye was extracted with formamide for 72 h at room temperature for photometric determination at 620 nm. The amount of the accumulated Evans blue, which quantitatively correlates with the intensity of plasma extravasation, was expressed as dye/g wet tissue (Szolcsányi and Barthó 1981; Helyes et al., 1997, 2001, 2006). Each of these publications is incorporated herein by reference in its entirety.
Results are expressed as the mean±s.e.m. and analyzed for statistical significance with one-way ANOVA followed by Dunnett post-hoc test when the data were compared to the control group. In the rat in vivo studies, multiple comparisons were also made with Bonferroni's modified t-test to compare the effects of the different doses to each other. *p<0.05 was considered to be significant.

[2] = Appearance of CYT-1010 preparations in 20% HPCD; assay type: physicochemical
Procedure: as §1
Stock solution of the 100 μg/ml concentration of CYT-1010 (5.5 ml) was prepared fresh every experimental day with 20% hydroxypropyl-βcyclodextrin (HPCD) dissolved in sterile distilled water, shaken properly and sonicated. The vehicle was 20% HPCD dissolved in sterile distilled water. Further dilutions of the compound for the smaller administered doses were made with this vehicle. The applied concentrations were filtered through a 0.2 μm sterile teflon filter. […] The lower concentrations looked clear immediately. Non-filtered solutions were administered in the same concentrations in the parallel groups for comparison. Three doses of both the filtered and non-filtered CYT-1010 solutions (1, 10 and 100 μg/kg; 0.1 ml/10 g from the 0.1, 1 and 10 μg/ml solutions) were administered i.v. 5 min before the induction of the inflammation. Animals of the control group were treated with the same volume of the HPCD after or without the same filtration procedure.

For `NC(Cc1ccc(O)cc1)C(=O)NC1CCCCNC(=O)C(Cc2ccccc2)NC(=O)C(Cc2c[nH]c3ccccc23)NC1=O` [CYT-1010, H-Tyr-c-[D-Lys-Trp-Phe]], the “Inhibition of mustard oil-induced plasma protein extravasation” value ([1]; 1 μg/kg i.v. (smallest/lowest dose)) was about 60%, the “Evans blue leakage in the rat hindpaw skin” value ([1]; 1 μg/kg i.v.) was 63.04 μg/g wet skin and 42.27 μg/g wet skin and 3.46 μg/g wet skin and 41.04 μg/g wet skin and 31.69 μg/g wet skin and 46.87 μg/g wet skin and 49.44 μg/g wet skin and 47.62 μg/g wet skin and 77.51 μg/g wet skin and 53.72 μg/g wet skin and 48.91 μg/g wet skin and 59.80 μg/g wet skin and 65.26 μg/g wet skin and 48.52 μg/g wet skin and 44.06 μg/g wet skin and 33.73 μg/g wet skin and the “Evans blue leakage in the rat hindpaw skin, Mean” value (shortened to “Evans blue leakage … Mean”) ([1]; 1 μg/kg i.v.) was 47.31 μg/g wet skin. The “Evans blue leakage in the rat hindpaw skin” value ([1]; 10 μg/kg i.v.) was 87.67 μg/g wet skin and 79.89 μg/g wet skin and 77.63 μg/g wet skin and 87.14 μg/g wet skin and 108.49 μg/g wet skin and 73.59 μg/g wet skin and 65.69 μg/g wet skin and 78.05 μg/g wet skin and 94.66 μg/g wet skin and 36.25 μg/g wet skin and 51.07 μg/g wet skin and 41.10 μg/g wet skin and 46.38 μg/g wet skin and 91.18 μg/g wet skin and 61.48 μg/g wet skin and 77.24 μg/g wet skin, the “Evans blue leakage … Mean” value ([1]; 10 μg/kg i.v.) was 72.34 μg/g wet skin and the “Evans blue leakage in the rat hindpaw skin” value ([1]; 100 μg/kg i.v.) was 71.20 μg/g wet skin and 54.84 μg/g wet skin and 83.92 μg/g wet skin and 49.09 μg/g wet skin and 54.86 μg/g wet skin and 59.74 μg/g wet skin and 88.54 μg/g wet skin and 56.89 μg/g wet skin and 75.00 μg/g wet skin and 56.81 μg/g wet skin and 63.41 μg/g wet skin and 68.93 μg/g wet skin and 49.74 μg/g wet skin and 52.19 μg/g wet skin and 49.21 μg/g wet skin and 80.28 μg/g wet skin. For the same compound, the “Evans blue leakage … Mean” value ([1]; 100 μg/kg i.v.) was 63.42 μg/g wet skin, the “Evans blue leakage in the rat hindpaw skin” value ([1]; 1000 μg/kg i.v.) was 55.85 μg/g wet skin and 66.07 μg/g wet skin and 85.40 μg/g wet skin and 79.34 μg/g wet skin and 154.03 μg/g wet skin and 74.05 μg/g wet skin and 88.00 μg/g wet skin and 62.92 μg/g wet skin and 55.80 μg/g wet skin and 67.62 μg/g wet skin and 57.47 μg/g wet skin and 37.45 μg/g wet skin and 46.10 μg/g wet skin and 76.56 μg/g wet skin and 54.68 μg/g wet skin and 63.41 μg/g wet skin and the “Evans blue leakage … Mean” value ([1]; 1000 μg/kg i.v.) was 70.30 μg/g wet skin. The “Effect on mustard oil-induced plasma protein extravasation in the rat skin” value ([1]; 1, 10, 100 and 1000 μg/kg i.v. pretreatment) was “significant inhibition; also recorded: significant anti-inflammatory effect; also recorded: significantly decreased”, the Appearance of preparation ([2]; 100 μg/ml in 20% HPCD, directly after preparation (Example 4)) was “opalescent” and the Appearance of preparation ([2]; 100 μg/ml in 20% HPCD, on standing at 4° C. (Example 4)) was “cleared up 1 hour later”. For the same compound, the Appearance of preparation ([2]; 500 μg/ml and 100 μg/ml in 20% HPCD) was “opalescent”, the Appearance of preparation ([2]; 1 mg/ml stock in 20% HPCD in sterile distilled water) was “milky white micro-suspension” and the Appearance of preparation ([2]; lower concentrations (below 100 μg/ml) in 20% HPCD) was “clear”.
